{"source": "patent US4587340A", "about": "“Biopterin analogs” (Burroughs Wellcome Co., priority 1984, dated 1986)", "key": {"[1]": {"molecular_target": "T1, Phenylalanine hydroxylase (Rattus norvegicus, UniProt P04176)", "T1 construct": "Phenylalanine hydroxylase was prepared from rat liver using hydrophobic chromatography; from tissue; host or cells: rat liver", "T1 sequence (P04176 1-453)": "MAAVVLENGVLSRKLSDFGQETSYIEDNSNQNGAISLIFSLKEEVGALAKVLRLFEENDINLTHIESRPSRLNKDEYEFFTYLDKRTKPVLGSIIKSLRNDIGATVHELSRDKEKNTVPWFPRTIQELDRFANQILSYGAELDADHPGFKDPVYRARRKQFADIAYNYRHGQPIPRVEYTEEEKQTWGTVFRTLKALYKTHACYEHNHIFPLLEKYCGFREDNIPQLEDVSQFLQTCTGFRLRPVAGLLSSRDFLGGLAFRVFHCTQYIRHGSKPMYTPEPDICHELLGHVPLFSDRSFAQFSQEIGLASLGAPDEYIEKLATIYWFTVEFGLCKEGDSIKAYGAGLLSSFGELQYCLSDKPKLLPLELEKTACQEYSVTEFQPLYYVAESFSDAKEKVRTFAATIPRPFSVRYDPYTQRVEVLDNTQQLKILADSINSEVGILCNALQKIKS", "assay": "Phenylalanine hydroxylase cofactor assay", "assay_type": "biochemical", "details": "for Phenylalanine hydroxylase Vmax: tetrahydrobiopterin = 100"}, "Tryptophan hydroxylase": {"molecular_target": "T2, Tryptophan hydroxylase (Rattus norvegicus, UniProt Q8CGU9)", "T2 construct": "The preparation of tryptophan hydroxylase was a crude 30,000xg supernatant; from tissue", "T2 sequence (Q8CGU9 1-485)": "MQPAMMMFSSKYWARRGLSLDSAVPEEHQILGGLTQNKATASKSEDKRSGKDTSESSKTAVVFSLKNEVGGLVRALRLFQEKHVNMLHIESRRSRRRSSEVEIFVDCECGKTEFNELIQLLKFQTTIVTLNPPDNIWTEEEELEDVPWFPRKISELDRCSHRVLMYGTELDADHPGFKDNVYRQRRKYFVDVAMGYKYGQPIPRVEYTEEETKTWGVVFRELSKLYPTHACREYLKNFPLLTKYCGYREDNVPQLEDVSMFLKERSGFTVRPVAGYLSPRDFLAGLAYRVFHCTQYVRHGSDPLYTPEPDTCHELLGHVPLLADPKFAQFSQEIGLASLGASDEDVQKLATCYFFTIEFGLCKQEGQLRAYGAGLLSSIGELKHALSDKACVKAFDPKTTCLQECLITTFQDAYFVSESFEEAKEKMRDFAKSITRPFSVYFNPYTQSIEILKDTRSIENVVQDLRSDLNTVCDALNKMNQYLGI", "assay": "Tryptophan hydroxylase cofactor assay", "assay_type": "biochemical", "details": "for Activity for tryptophan hydroxylase: in words; for Tryptophan hydroxylase Vmax: tetrahydrobiopterin = 100", "procedure": "Tryptophan hydroxylase was assayed according to a modification of the method of Renson J., et al (Biochem. Biophys. Acta 25: 504 (1966))."}, "Tyrosine hydroxylase": {"molecular_target": "Tyrosine hydroxylase (Homo sapiens, UniProt P07101)", "sequence (P07101 whole entry)": "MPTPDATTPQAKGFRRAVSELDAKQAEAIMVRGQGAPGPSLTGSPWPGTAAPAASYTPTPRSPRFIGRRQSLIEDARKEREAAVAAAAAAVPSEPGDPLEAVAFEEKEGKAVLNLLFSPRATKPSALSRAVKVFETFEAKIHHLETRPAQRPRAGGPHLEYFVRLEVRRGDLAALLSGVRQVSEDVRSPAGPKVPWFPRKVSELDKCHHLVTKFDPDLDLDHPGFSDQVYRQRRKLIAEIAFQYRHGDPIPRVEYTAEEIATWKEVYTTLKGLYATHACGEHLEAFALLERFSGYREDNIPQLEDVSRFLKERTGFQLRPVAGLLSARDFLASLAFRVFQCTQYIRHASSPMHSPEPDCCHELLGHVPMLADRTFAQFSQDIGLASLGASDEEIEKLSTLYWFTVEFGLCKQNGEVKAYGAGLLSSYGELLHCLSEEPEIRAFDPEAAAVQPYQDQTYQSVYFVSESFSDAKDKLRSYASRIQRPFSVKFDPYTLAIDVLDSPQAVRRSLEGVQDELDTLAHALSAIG", "assay": "Tyrosine hydroxylase cofactor assay", "assay_type": "biochemical", "procedure": "Tyrosine hydroxylase was partially purified through a 25-45% ammonium sulfate fraction. […] The enzyme was assayed by a modification of the method of Nagatsu, T., Levitt, M., and Udenfriend, S. (Anal. Biochem. 9, 122, (1964)) where the Dowex chromatography step was replaced by a charcoal extraction."}, "depression": {"system": "depression", "details": "several patients; cited from earlier work"}, "[2]": {"molecular_target": "T3, Dihydropteridine reductase (Homo sapiens, UniProt P09417)", "T3 sequence (P09417 1-244)": "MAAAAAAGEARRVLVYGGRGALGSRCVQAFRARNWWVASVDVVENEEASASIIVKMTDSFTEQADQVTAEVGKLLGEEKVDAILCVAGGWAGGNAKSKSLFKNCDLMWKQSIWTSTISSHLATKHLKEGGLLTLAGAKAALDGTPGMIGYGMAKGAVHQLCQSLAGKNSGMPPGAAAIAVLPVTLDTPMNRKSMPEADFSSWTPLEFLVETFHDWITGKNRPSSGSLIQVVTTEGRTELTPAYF", "assay": "Dihydropteridine reductase assay", "assay_type": "biochemical", "details": "quinonoid dihydro form; biopterin form = 100", "procedure": "Dihydropteridine reductase was assayed by the method of Craine, et al., (J. Biol. Chem., 247, 6082 (1972))."}, "[3]": {"details": "background statement; cited from earlier work"}, "bovine liver DHFR": {"molecular_target": "T4, bovine liver DHFR (Bos taurus, UniProt P00376)", "T4 construct": "from tissue; host or cells: bovine liver", "T4 sequence (P00376 1-187)": "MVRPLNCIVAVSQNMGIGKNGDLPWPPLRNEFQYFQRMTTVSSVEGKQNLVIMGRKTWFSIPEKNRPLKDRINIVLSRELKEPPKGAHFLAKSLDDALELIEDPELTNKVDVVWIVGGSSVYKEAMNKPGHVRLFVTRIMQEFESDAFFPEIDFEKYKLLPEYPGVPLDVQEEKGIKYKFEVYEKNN", "assay": "Dihydrofolate reductase assay", "assay_type": "biochemical", "details": "for Dihydrofolate reductase V: 7,8-dihydro form of the pterin, 7,8-dihydrobiopterin = 100", "procedure": "These assays were carried out on the 7,8-dihydropterin analogs of the compounds of formula I which were tetrahydropterins. The 7,8-dihydropterins were obtained commercially (in the case of dihydrobiopterin) or synthesized from the corresponding compound of formula I. Synthesis of 7,8-dihydropterins involved the combination of 0.27 μmole of a compound of formula I, 20 μg of horseradish peroxidase, 0.6 μmole of hydrogen peroxide in 0.1 ml of 0.5M potassium phosphate buffer, pH 7.5. After 3 min at room temperature, 10 μg of bovine liver catalase was added. The production of the 7,8-dihydropterin was verified by U.V. spectroscopy.\nThe assay was carried out with bovine liver DHFR using a modification of the method of Bailey and Ayling (J. Biol. Chem., 253, 1598 (1978)) where the desired dihydropterin replaced dihydrobiopterin, and the HPLC system used consisted of an anaerobic 0.1M acetic acid (with or without 10% acetonitrite) solvent on a 25 cm×4.6 mm Dupont TMS-Zorbax column. In our hands, dihydrobiopterin is reduced at a rate 2.5% that of the natural substrate dihydrofolate."}, "atypical PKU": {"system": "atypical PKU", "details": "large quantities; cited from earlier work"}, "[4]": {"system": "striatal dopamine synthesis, noradrenaline synthesis in peripheral nerves", "details": "administration of BH4; cited from earlier work"}, "Parkinson's disease": {"system": "Parkinson's disease", "details": "BH4 administration; cited from earlier work"}, "[5]": {"details": "background statement; cited from earlier work", "remark": "listed apart in the source"}}}
{"smiles": "CCCCCCCCOCC1CNc2nc(N)[nH]c(=O)c2N1", "note": "(stereo not drawn) [C8 H17]", "values": [{"measurement": "Activity for phenylalanine hydroxylase", "setting": "[1]; in words", "result": "successively less active"}, {"measurement": "Activity for tryptophan hydroxylase", "setting": "Tryptophan hydroxylase", "result": "successively less active"}]}
{"smiles": "CCCCOCC1CNc2nc(N)[nH]c(=O)c2N1", "note": "(racemic) [R=C4 H9, (+-)-2-Amino-5,6,7,8-tetrahydro-6-n-butoxymethyl-4(3H)-pteridinone]", "values": [{"measurement": "Activity for phenylalanine hydroxylase", "setting": "[1]; in words", "result": "successively less active"}, {"measurement": "Specificity for tyrosine hydroxylase", "setting": "Tyrosine hydroxylase; versus tryptophan and phenylalanine hydroxylases", "result": "greatest specificity"}, {"measurement": "Activity for tryptophan hydroxylase", "setting": "Tryptophan hydroxylase", "result": "successively less active"}]}
{"smiles": "C[C@H](O)[C@H](O)[C@H]1CNc2nc(N)[nH]c(=O)c2N1", "note": "[Tetrahydrobiopterin]", "values": [{"measurement": "Symptoms of depression", "setting": "depression", "result": "improve the symptoms of depression"}, {"measurement": "Specific activity of phenylalanine hydroxylase with the co-factor", "setting": "[1]; 37°, rat liver enzyme", "result": "1.0 μmol/mg protein per minute"}, {"measurement": "Substrate inhibition of phenylalanine hydroxylase by large amounts of phenylalanine", "setting": "[1]; in words", "result": "large amounts of phenylalanine inhibit phenylalanine hydroxylase"}, {"measurement": "Phenylalanine hydroxylase Vmax", "setting": "[1]", "result": 100, "unit": "%"}, {"measurement": "Dihydropteridine reductase Vmax", "setting": "[2]", "result": 100, "unit": "%"}, {"measurement": "Brain penetration", "setting": "[3]", "result": "penetrates brain poorly"}, {"measurement": "Dihydrofolate reductase V", "setting": "bovine liver DHFR", "result": 100, "unit": "%"}, {"measurement": "Treatment of atypical PKU", "setting": "atypical PKU", "result": "successfully treated"}, {"measurement": "Noradrenaline synthesis in peripheral nerves", "setting": "[4]", "result": "nearly double"}, {"measurement": "Striatal dopamine synthesis", "setting": "[4]", "result": "nearly double"}, {"measurement": "Symptoms of Parkinson's disease", "setting": "Parkinson's disease", "result": "improve the symptoms of Parkinson's disease"}, {"measurement": "Specific activity of tyrosine hydroxylase preparation with the cofactor", "setting": "Tyrosine hydroxylase; 25-45% ammonium sulfate fraction", "result": "4.0 nmole/mg protein (min)"}, {"measurement": "Tyrosine hydroxylase Vmax", "setting": "Tyrosine hydroxylase; tetrahydrobiopterin = 100", "result": 100, "unit": "%"}, {"measurement": "Specific activity of tryptophan hydroxylase with the cofactor", "setting": "Tryptophan hydroxylase; 37°, crude 30,000xg supernatant", "result": "approximately 100 pmol product per milligram protein per minute"}, {"measurement": "Tryptophan hydroxylase Vmax", "setting": "Tryptophan hydroxylase", "result": 100, "unit": "%"}, {"measurement": "Stability", "setting": "[5]", "result": "unstable"}]}
{"smiles": "COCC1CNc2nc(N)[nH]c(=O)c2N1", "note": "(racemic) [6-Methoxymethyl-tetrahydropterin, (+-)-2-Amino-5,6,7,8-tetrahydro-6-methoxymethyl-4(3H)-pteridinone]", "values": [{"measurement": "Phenylalanine hydroxylase Vmax", "setting": "[1]", "result": 79, "unit": "%"}, {"measurement": "Dihydrofolate reductase V", "setting": "bovine liver DHFR", "result": 800, "unit": "%"}, {"measurement": "Tryptophan hydroxylase Vmax", "setting": "Tryptophan hydroxylase", "result": 54, "unit": "%"}]}
{"smiles": "CCOCC1CNc2nc(N)[nH]c(=O)c2N1", "note": "(racemic) [R=C2 H5, (+-)-2-Amino-5,6,7,8-tetrahydro-6-ethoxymethyl-4(3H)-pteridinone]", "values": [{"measurement": "Activity for phenylalanine hydroxylase", "setting": "[1]; in words", "result": "active"}, {"measurement": "Activity for tyrosine hydroxylase", "setting": "Tyrosine hydroxylase; in words", "result": "active"}, {"measurement": "Activity for tryptophan hydroxylase", "setting": "Tryptophan hydroxylase", "result": "active"}]}
{"smiles": "CC(O)C(O)C1=Nc2c(nc(N)[nH]c2=O)NC1", "note": "(stereo not drawn) [7,8-Dihydrobiopterin]", "values": [{"measurement": "Rate of reduction by DHFR relative to dihydrofolate, the natural substrate", "setting": "bovine liver DHFR; bovine liver DHFR", "result": 2.5, "unit": "%"}]}
{"smiles": "CCCOCC1CNc2nc(N)[nH]c(=O)c2N1", "note": "(stereo not drawn) [R=C3 H7]", "values": [{"measurement": "Activity for phenylalanine hydroxylase", "setting": "[1]; in words", "result": "successively less active"}, {"measurement": "Activity for tryptophan hydroxylase", "setting": "Tryptophan hydroxylase", "result": "successively less active"}]}
